Test results published in patent publication US5395947A, “Platinum(II) complex and processes for preparing the same” (Sunkyong Industries, Ltd., priority 1991, dated 1995).

Key:
[1] = Test for water solubility; format: physicochemical
Excerpt: 3. Test for water solubility
A standard plot of UV absorbance(220 nm) vs. concentration was made; and employed to determine water-solubility.
The mixture was then passed through a 0.45 micron disposable membrane filter before dilution and UV measurement.

murine leukemia L1210 = test: Antitumor activity test on murine leukemia L1210 in vivo; set-up: species or system male BDF1 mice; conditions: days 1, 5, 9
Procedure: 2. Antitumor activity test on murine leukemia L1210 in vivo
Murine leukemia L1210 cells were maintained in the peritoneal cavities of 6-week-old male DBA/2 mice by weekly transfer in accordance with the procedure described in cancer chemotherapy Reports, Part 3, 3(2), 7 (1972). Specifically, 1×10^6 leukemia cells were inoculated into the abdominal cavities of 6-week-old male BDF1 mice weighing 21±3 g on day 0. Each treatment group consisted of seven mice. The test compounds were dissolved or suspended in 0.5% carboxymethyl cellulose(CMC)solution (in water) and were administered intraperitoneally on days 1, 5, and 9 relative to the tumor inoculation.
Thirty mice of 6-week-old male BDF1 weighing 21±3 g were used as the control group, which were injected with 0.5% CMC solution only in the same manner as above.
Anti-tumor activities of the compounds were evaluated in terms of the T/C % values calculated from the mean survival time(T) of the compound-treated group over that(C) of the control group. [formula]

[2] = system: murine leukemia L1210 cells; test: Growth inhibition test on cultured murine leukemia L1210 cells; format: cell-based; conditions: 48 hours, 37° C., Trypan blue viability
Procedure: 1. Growth inhibition test on cultured murine leukemia L1210 cells
Murine leukemia L1210 cells(1×10^5) were treated with various concentrations of the compounds prepared in the above examples in RPMI 1640 medium supplemented with 10% fetal calf serum, and cultured in a 5% CO2 humidified incubator at 37° C. for 48 hours. Their viability, estimated by staining with 0.17% Trypan blue, was compared with that of control cells cultured in the identical medium without the compounds.

| SMILES | Solubility in water ([1]; water) | T/C (%) (murine leukemia L1210; 3.1 mg/kg i.p.) | T/C (%) (murine leukemia L1210; 6.2 mg/kg i.p.) | T/C (%) (murine leukemia L1210; 12.5 mg/kg i.p.) | T/C (%) (murine leukemia L1210; 25 mg/kg i.p.) | T/C (%) (murine leukemia L1210; 50 mg/kg i.p.) | IC50 (concentration required for 50% inhibition of growth) [2] | T/C (%) (murine leukemia L1210; 100 mg/kg i.p.) | Solubility in water ([1]; 20° C.) |
| --- | --- | --- | --- | --- | --- | --- | --- | --- | --- |
| CCCC1OC2C[NH2+][Pt-2]3([NH2+]CC2O1)[O]CC(=O)[O]3 [Example 10, (glycolato-O,O')[(4R,5R)-4,5-bis(aminomethyl)-2-propyl-1,3-dioxolane]platinum(II)] | > 30000 µg/mL | 154% | 161% | 201% | toxic | toxic | 0.13 µg/mL | – | – |
| CC(C)C1OC2C[NH2+][Pt-2]3([NH2+]CC2O1)[O]C(=O)C1(CCC1)C(=O)[O]3 [Example 28, cis-cyclobutane-1,1-dicarboxylato[(4R,5R)-4,5-bis(aminomethyl)-2-isopropyl-1,3-dioxolane]platinum(II)] | 2100 µg/mL | – | 113% | 106% | 126% | 133% | 1.14 µg/mL | 130% | – |
| O=C1[O][Pt-2]2([NH2+]CC3OCOC3C[NH2+]2)[O]C(=O)C12CCC2 [Example 21, cis-cyclobutane-1,1-dicarboxylato[(4S,5S)-4,5-bis(aminomethyl)-1,3-dioxolane]platinum(II)] | – | – | – | – | – | – | 2.08 µg/mL | – | 3100 µg/mL |
| CC(C)C1OC2C[NH2+][Pt-2]3([NH2+]CC2O1)[O]C(=O)C1(CCC1)C(=O)[O]3 [Example 29, cis-cyclobutane-1,1-dicarboxylato[(4S,5S)-4,5-bis(aminomethyl)-2-isopropyl-1,3-dioxolane]platinum(II)] | – | – | – | – | – | – | 2.12 µg/mL | – | 2000 µg/mL |
| NC[C@@H]1OC2(CCCCC2)O[C@H]1CN.O=C1[O][Pt][O]C(=O)C12CCC2 [Example 46, cis-cyclobutane-1,1-dicarboxylato[(4S, 5S)-4,5-bis(aminomethyl)-1,3-dioxolane-2-spiro-1'-cyclohexane]platinum(II)] | – | – | – | – | – | – | 2.23 µg/mL | – | 900 µg/mL |
| N.N.O=C([O-])C1(C(=O)[O-])CCC1.[Pt+2] [carboplatin, reference compound] | 10000 µg/mL | – | 107% | 125% | 148% | 196% | 1.98 µg/mL | 197% | – |
| CC1[O][Pt][O]C1=O.NCC1OC2(CCCCC2)OC1CN [Example 16, (L-lactato-O,O'){cyclohexanespiro-2'-[(4'R,5'R)-4',5'-bis(aminomethyl)-1',3'-dioxolane]}platinum(II)] | 3800 µg/mL | – | – | 204% | 227% | toxic | 0.34 µg/mL | – | – |
